In PMC11484510, “Antibacterial activity of structurally diverse natural prenylated isobavachalcone derivatives” (RSC Advances, 2024):
In brackets after ≈: the same amount, converted by molar mass. Entries after “also recorded” stand apart in the source; their conditions may differ. Like-named read-outs stand apart in the source and are kept apart here.

How the values were obtained:
S. aureus [1] = assay: Combinational study (checkerboard microdilution) with standard drugs; format: cell-based; conditions: for MIC: Staphylococcus aureus, read-out: MIC alone
Experimental: The Fractional Inhibitory Concentration Index (FICI) was calculated for each test compound and reference drug to find the combinational effect.
In a 96-well flat bottom plate, the reference drug with 4× MIC was serially diluted horizontally. The test compounds with 4× MIC were serially diluted two-fold outside the plate in 1.5 mL Eppendorf's using Mueller Hinton Broth (MHB). These two serially diluted compounds were combined to create drug-compound combinations in the plate. The reference drug (horizontally) and tested compounds (vertically) alone were serially diluted for MIC determination. 100 μL of the standardized bacterial inoculum with a turbidity equivalent to a 0.5 McFarland standard were diluted 1 : 100 in Mueller Hinton Broth and inoculated in the plates. The plates were incubated for 24 hours at 37 °C. After incubation, 10 μL of freshly prepared Alamar blue (Himedia) was added to each well of the plate, and the plates were further incubated at 37 °C for 30 minutes. After incubation, the plates were visually observed. […] The FICI was calculated using the formula FICI = FIC of compound + FIC of drug. The calculation followed is FICI (CA/(MICA)) + (CB/(MICB)), where CA is the MIC of the compound in combination, CB is the MIC of the drug in combination, and MICA and MICB are the MIC values of individual compounds and drugs, respectively. The range selection followed the interpretation criteria. The FICI range of 0.5 to 4 indicates indifference, ≤ or =0.5 indicates synergy and >4 indicates antagonism.[57]

MRSA ATCC 15187 = assay: MIC, broth microdilution (CLSI), Alamar blue; format: cell-based, Methicillin-resistant S. aureus; conditions: read-out: Minimum inhibitory concentration (MIC) MRSA
Description: (§1) The bacterial strains S. aureus ATCC 29213, MRSA ATCC 15187, E. coli ATCC 25922, and P. aeruginosa ATCC 27853 were obtained from ATCC (American Type Culture Collection). Cation-adjusted Mueller–Hinton broth (MHB; Becton–Dickinson, Cockeysville, MD) was used to determine the minimum inhibitory concentration (MIC). Mueller–Hinton agar (MHA; Becton–Dickinson) was used for minimum bactericidal concentration (MBC) studies. Alamar blue (Himedia) was used to detect the MIC value.
(§2) The antibacterial activity of the compounds against S. aureus ATCC 29213, MRSA ATCC 15187, E. coli ATCC 25922, and P. aeruginosa ATCC 27853 was determined through a broth microdilution method according to the guidelines of the Clinical and Laboratory Standards Institute (CLSI).[50] […] Growth control and media control were employed along with 2% DMSO as vehicle control.
(§3) In a 96-well flat bottom plate, the test compounds were two-fold serially diluted in Mueller Hinton Broth (MHB). The final concentrations of the compounds ranged from 100 to 0.08 μM. 100 μL of standardized bacterial inoculum with turbidity equivalent to 0.5 McFarland standard (1.5 × 10^8 CFU mL^−1) was diluted 1 : 100 (1.5 × 10^6 CFU mL^−1) in Mueller Hinton Broth and inoculated in the plates.[51] The plates were incubated for 24 hours at 37 °C. After incubation, 10 μL of freshly prepared Alamar blue (Himedia) was added to each well of the plate, and plates were further incubated at 37 °C for 30 minutes. After incubation, the fluorescence was measured at excitation/emission of 540–570/580–610 nm. The percentage inhibition and viability were calculated for the controls, and the Gompertz curve was utilized to estimate the minimum inhibitory concentration.

P. aeruginosa ATCC 27853 [2] = assay: MBC, plating on MHA; format: cell-based; conditions: Pseudomonas aeruginosa, ATCC27853; more than 99.9% of the cells killed; read-out: Minimum bactericidal concentration (MBC) P. aeruginosa
Description: as §1
(§4) MBC is defined as the lowest concentration of the compound at which more than 99.9% of the cells were killed compared with the growth control. The minimum compound concentration at which no visible bacterial growth was observed was taken as the Minimum Bactericidal Concentration (MBC).[50]

S. aureus ATCC 29213 [3] = assay: MBC, plating on MHA; format: cell-based; conditions: Staphylococcus aureus, ATCC29213; more than 99.9% of the cells killed; read-out: Minimum bactericidal concentration (MBC) S. aureus
Description: as §1, §4

S. aureus ATCC 29213 [4] = assay: Time-kill assay; format: cell-based; conditions: for Time-kill profile: MIC, 2× MIC, 4× MIC, 1 h to 24 h, 37 °C
[5] = system: RAW 264.7 macrophage cell line; assay: Cell viability assay (MTT); format: cell-based, murine; conditions: CC50 (RAW 264.7)/MIC with respect to S. aureus
Experimental: (§5) RAW 264.7 cells were acquired from the American type culture collection (ATCC, Manassas, VA) and cultured in Dulbecco's modified eagle's medium (DMEM, Gibco, Life Technologies, NY) supplemented with 10% fetal bovine serum (FBS) at 37 °C and 5% CO2. MTT dye (Himedia) was used to detect CC50 values. The antibiotics ciprofloxacin hydrochloride monohydrate (Himedia), kanamycin sulfate (Himedia), and vancomycin (Himedia) were used for reference in microbiological assays.
(§6) The effect of compounds (IBC, IBC-2, and IBC-3) on the viability of cells was evaluated at different concentrations against macrophage cell lines through the 3-(4,5-dimethylthiazol2-yl)-2, 5-diphenyltetrazolium bromide (MTT) assay. The RAW 264.7 cells are monocyte/macrophage-like cells originating from an Abelson leukemia virus-transformed cell line derived from BALB/c mice. Due to their reliability and consistency, these cell lines are widely utilized for both in vitro and in vivo analyses.[52] The MTT assay is a colorimetric assay used to measure the viability and cytotoxicity of cells. The cells (2 × 10^4 cells per well) were grown at 37 °C with 5% CO2 for 48 hours, then exposed to compounds with different concentrations. […] After 20–21 hours, 20 μL of MTT dye at 2.5 mg mL^−1 concentration was added to each well and incubated for 4 hours. 100 μL DMSO solubilized the water-insoluble purple and white formazan produced.[53] The formation of the formazan salt by mitochondrial dehydrogenases was measured at 570.0 nm after incubating for 20 min. The percentage cytotoxicity was calculated with respect to the untreated cells, and the CC50 value was calculated. CC50 was defined as the concentration of an inhibitor that reduces cellular activities by 50% compared to untreated control cultures. The CC50 values were calculated as the concentration where the absorbance was reduced by 50% using GraphPad Prism software.[54] The selectivity index (SI) determines the safety profile of the compound. It is calculated as the ratio of compound concentration at which 50% of cell growth is inhibited compared to untreated cells (CC50) to the effective inhibiting concentration against bacterial strain (MIC). The high SI (>10 fold of MIC) of a drug is proven to have a favorable safety profile.[28] Selectivity index (SI) = CC50 of the compound (μM)/MIC of the compound (μM).

[6] = Cell viability assay (MTT); format: cell-based, murine; conditions: mouse, RAW 264.7 macrophage cells; RAW 264.7 macrophage cell line, MTT assay
Experimental: as §5, §6

E. coli ATCC 25922 = assay: MIC, broth microdilution (CLSI), Alamar blue; format: cell-based; conditions: E. coli ATCC 25922, 24 hours at 37 °C, read-out: Minimum inhibitory concentration (MIC) E. coli
Description: as §1, §2, §3

P. aeruginosa ATCC 27853 [7] = assay: MIC, broth microdilution (CLSI), Alamar blue; format: cell-based; conditions: P. aeruginosa ATCC 27853, 24 hours at 37 °C, read-out: Minimum inhibitory concentration (MIC) P. aeruginosa
Description: as §1, §2, §3

S. aureus ATCC 29213 [8] = assay: MIC, broth microdilution (CLSI), Alamar blue; format: cell-based; conditions: S. aureus ATCC 29213, 24 hours at 37 °C, read-out: Minimum inhibitory concentration (MIC) S. aureus
Description: as §1, §2, §3

S. aureus [9] = assay: Cell integrity analysis by PI staining; format: cell-based; conditions: drug control at 1× MIC, 30 minutes
Experimental: Propidium iodide (PI) indicates cell integrity, emitting a red fluorescence signal. PI's polar and hydrophilic nature impedes its entrance within active bacterial cells, but within perforated dead cells, it can easily bind to nucleic acid (DNA/RNA).[32,60]S. aureus bacterial cells were incubated overnight at 37 °C and diluted further 1 : 100 in Mueller Hinton Broth (MHB). The diluted culture was grown until its OD600 reached 0.5. […] Vancomycin was used as a drug control at 1× MIC, while untreated bacterial cells were used as growth control. The samples were centrifuged at 5000 rpm speed at 4 °C temperature for 10 minutes, and the pellet was washed two times using phosphate-buffered saline pH-7.4 (PBS). To stain the sample (dead cells), 3 μL PI of 20.0 mM concentration was added to the 1 mL solution (pellet resuspended in PBS) and incubated for 15 minutes. To remove the dye, the samples were centrifuged again and washed with PBS once. The final pellet was resuspended in 1 mL of PBS, and 30 μL of each undiluted sample was used to obtain fluorescence imaging. The cells were observed under fluorescence microscopy.[61]

[10] = MIC of the compound in combination with ciprofloxacin, S. aureus
[11] = MIC of the compound in combination with vancomycin, S. aureus
[12] = checkerboard, S. aureus, substance alone
[13] = compound with ciprofloxacin, S. aureus
[14] = compound with vancomycin, S. aureus
[15] = MRSA ATCC 15187, 24 hours at 37 °C
[16] = Staphylococcus aureus, MRSA ATCC 15187, 24 hours at 37 °C
[17] = Pseudomonas aeruginosa, ATCC27853, 24 h
[18] = Staphylococcus aureus, ATCC29213

Structure (SMILES) | MIC combination (compound) (S. aureus [1]; [10]) [µM] | MIC combination (compound) (S. aureus [1]; [11]) [µM] | MIC (S. aureus [1]; [12]) [µM] | Outcome of combination (S. aureus [1]; [13]) | ∑ FICI (S. aureus [1]; [13]) | Outcome of combination (S. aureus [1]; [14]) | ∑ FICI (S. aureus [1]; [14]) | MIC (MRSA ATCC 15187; [15]) [µM] | MIC (MRSA ATCC 15187; [16]) [µM] | MBC (P. aeruginosa ATCC 27853 [2]) [µM] | MBC (S. aureus ATCC 29213 [3]) [µM] | Time-kill profile (S. aureus ATCC 29213 [4]) | CC50 [6] [µM] | MIC (E. coli ATCC 25922) [µM] | MIC (E. coli ATCC 25922; Escherichia coli, ATCC25922) [µM] | MIC (P. aeruginosa ATCC 27853 [7]; [17]) [µM] | MIC (S. aureus ATCC 29213 [8]) [µM] | MIC (S. aureus ATCC 29213 [8]; [18]) [µM] | other results
CC(C)=CCc1c(O)ccc(C(=O)/C=C/c2ccc(O)cc2)c1O [IBC, (E)-1-(2,4-dihydroxy-3-(3-methylbut-2-en-1-yl)phenyl)-3-(4-hydroxyphenyl) prop-2-en-1-one] | 5 | 2.5 | 5 | Indifference (The FICI range of 0.5 to 4 indicates indifference) | 1.25 | Indifference (The FICI range of 0.5 to 4 indicates indifference) | 0.99 | >100 | > 100 | 25 (≈ 8.11 µg/mL) | 6.25 (≈ 2.03 µg/mL) | after 24 hours, an increase in CFU was observed; also recorded: concentration-dependent killing till 9 h | 94 | >100 | > 100 | 24 (≈ 7.79 µg/mL) | 5 (≈ 1.62 µg/mL) | 5 (≈ 1.62 µg/mL) | Selectivity index (SI) [5]: 19
CC1(C)CCc2c(ccc3c2OC(c2ccc(O)cc2)CC3=O)O1 (stereo not drawn) [IBC-2, 2-(4-hydroxyphenyl)-8,8-dimethyl-2,3,9,10-tetrahydro-4H,8H-pyrano[2,3-f]chromen-4-one] | 0.625 | 5 | 5 | Indifference (The FICI range of 0.5 to 4 indicates indifference) | 0.625 | Indifference (The FICI range of 0.5 to 4 indicates indifference) | 2 | >100 | > 100 | 50 (≈ 16.2 µg/mL) | 12.5 (≈ 4.05 µg/mL) | concentration-dependent killing effect; also recorded: concentration and time-dependent killing effects | 115 | >100 | > 100 | 24 (≈ 7.79 µg/mL) | 5 (≈ 1.62 µg/mL) | 5 (≈ 1.62 µg/mL) | CFU count of S. aureus ATCC 29213 in time-kill study (S. aureus ATCC 29213 [4]; 2× MIC and 4× MIC, with increasing time (up to 24 h)): below the detection limit; MIC (P. aeruginosa ATCC 27853 [7]): 22 µM (≈ 7.14 µg/mL)
CN[C@H](CC(C)C)C(=O)N[C@H]1C(=O)N[C@@H](CC(N)=O)C(=O)N[C@H]2C(=O)N[C@H]3C(=O)N[C@H](C(=O)N[C@H](C(=O)O)c4cc(O)cc(O)c4-c4cc3ccc4O)[C@H](O)c3ccc(c(Cl)c3)Oc3cc2cc(c3O[C@@H]2O[C@H](CO)[C@@H](O)[C@H](O)[C@H]2O[C@H]2C[C@](C)(N)[C@H](O)[C@H](C)O2)Oc2ccc(cc2Cl)[C@H]1O [Vancomycin, vancomycin, reference compound] | – | – | – | – | – | – | – | – | – | – | – | – | – | – | – | – | – | – | MIC combination (drug) (S. aureus [1]; MIC of vancomycin in combination with IBC, S. aureus): 0.39 µM; MIC combination (drug) (S. aureus [1]; MIC of vancomycin in combination with IBC-2, S. aureus): 0.78 µM; MIC combination (drug) (S. aureus [1]; MIC of vancomycin in combination with IBC-3, S. aureus): 0.02 µM; MIC (S. aureus [1]): 0.78 µM; PI red fluorescence (cell integrity) (S. aureus [9]): higher number of dead cells emitting red fluorescence; MIC (MRSA ATCC 15187; Staphylococcus aureus, 24 h): 0.7 µM (≈ 1.01 µg/mL)
